Assay results reported in paper PMC6934184, “Selective DNA-PKcs inhibition extends the therapeutic index of localized radiotherapy and chemotherapy” (The Journal of Clinical Investigation, 2019).

Target: T1, ADRBK1 (GRK2) (Homo sapiens, UniProt P25098)
T1 construct: purchased Thermo Fisher Scientific (Life Technologies) SelectScreen
Assay: SelectScreen Z'LYTE
Format: biochemical
Summary of the method: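 Percent values come from Thermo SelectScreen profiling of NU5455, combining activity and binding assays. CSF1R was run in Z'LYTE format at Km app ATP, and CAMK1 in Adapta format with ATP listed at 10.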

T1 sequence (P25098 whole entry): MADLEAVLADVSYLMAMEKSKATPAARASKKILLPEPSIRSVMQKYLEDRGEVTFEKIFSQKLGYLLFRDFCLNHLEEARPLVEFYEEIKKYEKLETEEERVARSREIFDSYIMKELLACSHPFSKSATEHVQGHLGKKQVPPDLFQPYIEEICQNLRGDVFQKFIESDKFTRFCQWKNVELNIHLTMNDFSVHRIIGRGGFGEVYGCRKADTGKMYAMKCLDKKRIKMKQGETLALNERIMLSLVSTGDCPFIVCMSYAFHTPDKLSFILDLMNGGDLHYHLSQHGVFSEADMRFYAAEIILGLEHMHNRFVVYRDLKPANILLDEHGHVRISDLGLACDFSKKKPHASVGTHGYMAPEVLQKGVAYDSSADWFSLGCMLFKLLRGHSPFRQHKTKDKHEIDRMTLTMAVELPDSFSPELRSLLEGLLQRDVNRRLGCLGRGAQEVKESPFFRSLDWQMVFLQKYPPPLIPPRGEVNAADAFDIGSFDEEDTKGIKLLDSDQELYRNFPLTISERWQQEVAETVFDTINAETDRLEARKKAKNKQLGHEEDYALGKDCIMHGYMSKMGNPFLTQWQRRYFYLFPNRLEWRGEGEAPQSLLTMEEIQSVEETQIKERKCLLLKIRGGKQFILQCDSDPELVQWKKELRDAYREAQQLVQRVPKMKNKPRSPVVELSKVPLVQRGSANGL

Q: With `CN(C(=O)CN1CCOCC1)c1ccc2sc3c(-c4cccc5c(=O)cc(N6CC7CCC(C6)O7)oc45)cccc3c2c1` [NU5455] as the compound, how does the inhibition at 1 µM read?
A: The inhibition at 1 µM was -2%.
